Experimental findings from US4563477A, “Process for the preparation of alpha-(N-pyrrolyl)-derivative acids, the salts and esters thereof; alpha-(N-pyrrolyl)-phenylacetic acids, the esters thereof, pharmaceutical compositions containing them and therapeutical applications thereof” (Antibioticos, S.A., priority 1982, dated 1986) are described below.

Assay [1] relates to ADP induced platelet aggregation. Kind of assay: "Ex vivo" platelet anti-aggregation activity in rats (ADP induced platelet aggregation, Born aggregometer). Also on record: species or system Wistar rats, ITA 177 SPF. The settings on record: 100 mg/kg p.o., n = 5, blood drawn 5 hours after administration; for Platelet aggregation %: control 86.4 ± 2.15, Duncan Kramer test p < 0.05; for Platelet aggregation, % inhibition: relative to control. On the procedure:
Acetylsalicyclic acid at a dose level of 100 mg/kg p.o. was used as standard.
The products to be tested were administered at the maximum dose of 200 mg/kg, p.o.
Both the standard and the products were administered dissolved or suspended in a 10 ml/kg Tween solution.
The animals were fasted during the test and for 17 hours prior thereto, but had water "ad libitum".
The % aggregation was calculated measuring the difference in mm in the recorder between the initial aggregation stage and the height of the specimen curve 6 minutes after the onset of aggregation.
This figure, therefore, is calculated as a percentage, taking as 100% the figure in mm of the difference between the platelet rich plasma (prp) and the platelet poor plasma (ppp) obtained in balancing the apparatus for the specimen under examination.
"Ex vivo" platelet anti-aggregation activity in rats

The test system of assay [2] is 0.5% acetic acid induced contorsions in NMRI mice. Kind of assay: Peripheral analgesic activity: 0.5% acetic acid induced contorsions in NMRI mice. The assay is classed as in vivo. The settings on record: male NMRI mice, n = 10, 100 mg/kg p.o.; for % inhibition relative to control (contorsions) / No mice with contorsions: 0.5% acetic acid i.p.; for No contorsions (X ± s.e.): 0.5% acetic acid i.p. after 30 minutes, observed half an hour, mean ± s.e., control 27.1 ± 4.3, Duncan Kramer test p < 0.05; for No mice with contorsions: control 10/10. On the procedure: The experimental method consists of injecting an irritant, such as acetic acid, into the […] peritoneum and provoking obviously appreciable painful contorsions such as stretching of the rear paws and twisting of the dorso-abdominal muscles.
The material used consisted of lots of NMRI mice bred in our SPF breeding centre under constant temperature and humidity conditions of 23°±0.5° C. and 70±5%.
Standard: acetylsalicylic acid
Vehicle: propylene glycol/water--40/60 v.
Transparent plastic cages.
With this material the mice were randomly distributed into groups of 10 animals. The test order and the treatment to be given to each group was also randomised. […]
The control lot received the vehicle. As standard, acetylsalicylic acid at a dose level of 100 mg/kg, suspended in the same vehicle and administered p.o., was used.
After 30 minutes, 0.25 ml per 20 g body weight of a 0.5% acetic acid solution was administered intraperitoneally.
The number of painful contorsions were counted and, for evaluating the results, the means of the number of stretches of each lot were calculated and were expressed as inhibition percentages relative to the control, as per the following equation: [formula] where c is the mean of the number of stretches of the control group and b is the mean of the number of stretches of the treated group.
The statistical significance between the lots may be ascertained with the Duncan-Kramer test, with p<0.05.
0.5% acetic acid induced contorsions in NMRI mice male (n = 10)

As to `O=C(O)C(c1ccccc1)n1cccc1` (racemic) [DL(±)-alpha-(N-pyrrolyl)-phenylacetic acid], in assay [1], the Platelet aggregation % amounted to 25.3 ± 9.28% and the “Platelet aggregation, % inhibition” value is listed as 70.7%. In assay [2], the “% inhibition relative to control (contorsions)” value (from here on “% inhibition relative to control”) is reported as 79.7%, the “No contorsions (X ± s.e.)” value was found to be 5.5 ± 1.8 and the “No mice with contorsions” value was 7/10.

As to `O=C(O)C(c1ccc(O)cc1)n1cccc1` (racemic) [Dibenzylammonium DL(±)-alpha-(N-pyrrolyl)-p-hydroxy-phenylacetate], in assay [2], the “% inhibition relative to control” value is 72.3%, the “No contorsions (X ± s.e.)” value was determined as 7.5 ± 2.2 and the “No mice with contorsions” value is given as 9/10.

Turning to `CCOC(=O)C(c1ccccc1)n1cccc1` (racemic) [Ethyl DL(±)-alpha-(N-pyrrolyl)-phenylacetate], in assay [1], the Platelet aggregation % was 42.0 ± 2.58% and the “Platelet aggregation, % inhibition” value is 51.4%.

Turning to `CC(=O)Oc1ccccc1C(=O)O` [Acetylsalicylic acid, reference compound], in assay [1], the Platelet aggregation % was 20.1 ± 1.49% and the “Platelet aggregation, % inhibition” value is on record as 76.7%. In assay [2], the “% inhibition relative to control” value was found to be 37.27%, the “No contorsions (X ± s.e.)” value was 17 ± 3.5 and the “No mice with contorsions” value was 10/10.

In the case of `O=C(O)Cn1cccc1` [Alpha-(N-pyrrolyl)-acetic acid], in assay [1], the Platelet aggregation % was found to be 63.1 ± 3.32% and the “Platelet aggregation, % inhibition” value is 27.0%.

Consider `O=C(O)[C@@H](c1ccccc1)n1cccc1` [D(+)-alpha-(N-pyrrolyl)-phenylacetic acid], for which, in assay [2], the “% inhibition relative to control” value is recorded as 70.9%, the “No contorsions (X ± s.e.)” value is reported as 7.9 ± 2.6 and the “No mice with contorsions” value was 8/10.

In the case of `O=C(O)[C@H](c1ccccc1)n1cccc1` [L(-)-alpha-(N-pyrrolyl)-phenylacetic acid], in assay [2], the “% inhibition relative to control” value is listed as 76.2%, the “No contorsions (X ± s.e.)” value was found to be 6.4 ± 1.9 and the “No mice with contorsions” value is 8/10.

Take `CCCCC1C(=O)N(c2ccccc2)N(c2ccccc2)C1=O` [Phenylbutazone, reference compound]: in assay [1], the Platelet aggregation % is recorded as 58.2 ± 7.35% and the “Platelet aggregation, % inhibition” value came out at 32.6%.
